Laboratory results published in US20090030033A1, “Novel Compounds 894” (AstraZeneca AB, priority 2007, published 2009).
Structures can show the parent of a compound that is named as a salt.

Target: T1, human GlyT1b (Homo sapiens, UniProt P48067)
T1 construct: expressed in transfected cells
T1 sequence (P48067 1-652 isoform P48067-3): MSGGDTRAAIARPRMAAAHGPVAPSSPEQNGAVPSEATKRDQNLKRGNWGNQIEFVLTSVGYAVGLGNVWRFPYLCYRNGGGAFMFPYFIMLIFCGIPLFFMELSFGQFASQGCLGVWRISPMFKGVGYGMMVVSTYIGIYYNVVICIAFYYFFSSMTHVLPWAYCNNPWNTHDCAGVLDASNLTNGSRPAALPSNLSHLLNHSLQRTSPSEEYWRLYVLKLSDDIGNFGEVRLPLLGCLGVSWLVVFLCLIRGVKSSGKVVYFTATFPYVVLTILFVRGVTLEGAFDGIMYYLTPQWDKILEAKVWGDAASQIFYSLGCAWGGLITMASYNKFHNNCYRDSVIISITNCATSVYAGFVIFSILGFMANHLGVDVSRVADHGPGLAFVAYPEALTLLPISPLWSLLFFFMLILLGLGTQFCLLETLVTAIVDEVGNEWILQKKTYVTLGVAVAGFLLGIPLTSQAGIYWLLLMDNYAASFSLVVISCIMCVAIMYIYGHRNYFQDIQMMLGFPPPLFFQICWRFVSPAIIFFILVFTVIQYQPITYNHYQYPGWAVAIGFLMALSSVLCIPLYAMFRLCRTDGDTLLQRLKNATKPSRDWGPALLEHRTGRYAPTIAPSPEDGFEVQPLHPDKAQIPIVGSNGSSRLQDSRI
Assay: [3H]Glycine Uptake Assay (SPA) in hGlyT1b/CHO cells
Format: cell-based
Settings: compounds of Formula Ia, read at 2 h
Protocol: The activity and usefulness of the compounds can be assessed in assays known to those skilled in the art. […] The potency was measured in the [3H]Glycine Uptake Assay substantially as described below.
[^3H]Glycine Uptake Assay
[^3H]Glycine: PerkinElmer (NET-004, [2-^3H]Glycine, 53.3 Ci/mmol, 1 mCi/mL)
Preparation of recombinant human GlyT1-CHO cells (hGlyT1-CHO). […] CHO-K1 cells (ATCC) were transfected with the recombinant vector containing GlyT1b using Lipofectamine 2000 (Invitrogen) and cultured in Ham's/F12 media supplemented with 10% fetal bovine serum, 2 mM L-glutamine at 37° C., 5% CO2, 90% humidity. Twenty-four hours after transfection, cells were diluted and switched to media containing 500 μg/ml hygromycin B. Antibiotic resistant cells were obtained after 21 days of culture in the presence of hygromycin B. Clonal stable cell lines were isolated by FACS single cell deposition into 96-well plates.
Cell culture: Recombinant hGlyT1-CHO cells were cultured in cell culture medium (Ham's/F12, containing 10% FBS, 2 mM L-glutamine and 500 μg/ml hygromycin B in 175 cm^2 flasks until near confluence prior to use in assay.
Cell suspension: Cell medium in a cell culture flask containing near confluent cells was removed and 5 ml of cell stripper was added to submerge all cells on the surface of the culture flask. Cell stripper was removed immediately and the flask incubated in a 37° C. incubator for ˜5 min. Cells were shaken loose and suspended in 5 ml of PBS. After splitting cells to initiate a new flask(s), the cells remaining were collected by centrifugation, counted, and resuspended in assay buffer to a density of ˜2 million/mL. The cell suspension was kept at room temperature before use.
SPA and isotope mixture: WGA PTV beads were suspended in assay buffer (2 mg/ml) containing 60 nM [^3H]Glycine and 20 μM unlabeled glycine and the suspension was kept at room temperature before assay.
Assay of glycine uptake: To the wells of an OptiPlate, 2 μl DMSO containing a test compound was spotted. This was followed by addition of 98 μl of cell suspension (˜1 million/ml final). After incubating cells with compound for ˜15 min, 100 μl of the SPA (200 μg/well final) and isotope mixture (30 nM isotope with 10 μM cold glycine, final) was added to initiate the glycine uptake. At 2 h, the plate was read on a TopCount to quantify SPA counts.

SMILES	IC50
O=C(NC(c1ccccc1)C12CCC(CC1)CN2)c1cccc(Cl)c1Cl (single isomer, unassigned) [N-(2-azabicyclo[2.2.2]octan-1-yl(phenyl)methyl)-2,3-dichlorobenzamide]	99.7 nM
Cc1c(C(=O)NC(c2ccccc2)C23CCC(CC2)CN3)cccc1C(F)(F)F (single isomer, unassigned) [N-(2-azabicyclo[2.2.2]octan-1-yl(phenyl)methyl)-2-methyl-3-(trifluoromethyl)benzamide]	67.6 nM
O=C(NC(c1ccccc1)C12CCC(CC1)CN2)c1cccc(C(F)(F)F)c1Cl (single isomer, unassigned) [drawing 102, N-(2-azabicyclo[2.2.2]octan-1-yl(phenyl)methyl)-2-chloro-3-(trifluoromethyl)benzamide]	455 nM
O=C(NC(c1ccccc1)C12CCC(CC1)CN2)c1cccc(C(F)(F)F)c1Cl (single isomer, unassigned) [drawing 103, N-(2-azabicyclo[2.2.2]octan-1-yl(phenyl)methyl)-2-chloro-3-(trifluoromethyl)benzamide]	198 nM
O=C(NC(c1ccccc1)C12CCC(CC1)CN2)c1cccc(C(F)(F)F)c1Cl (stereo not shown) [N-(2-azabicyclo[2.2.2]octan-1-yl(phenyl)methyl)-2-chloro-3-(trifluoromethyl)benzamide]	258 nM

Same assay, conditions: compounds of Formula Ib, read at 2 h

SMILES	IC50
CN1CC2CCC1(C(NC(=O)c1ccc(Cl)cc1Cl)c1ccccc1)CC2 (stereo not shown) [2,4-dichloro-N-((2-methyl-2-azabicyclo[2.2.2]octan-1-yl)(phenyl)methyl)benzamide]	6.45 nM
CN1CC2CCC1(C(NC(=O)c1cccc(F)c1Br)c1ccccc1)CC2 (stereo not shown) [2-bromo-3-fluoro-N-((2-methyl-2-azabicyclo[2.2.2]octan-1-yl)(phenyl)methyl)benzamide]	25.8 nM
CN1CC2CCC1(C(NC(=O)c1c(Cl)cccc1Br)c1ccccc1)CC2 (stereo not shown) [2-bromo-6-chloro-N-((2-methyl-2-azabicyclo[2.2.2]octan-1-yl)(phenyl)methyl)benzamide]	12.1 nM
Cc1cccc(Br)c1C(=O)NC(c1ccccc1)C12CCC(CC1)CN2C (stereo not shown) [2-bromo-6-methyl-N-((2-methyl-2-azabicyclo[2.2.2]octan-1-yl)(phenyl)methyl)benzamide]	1.34 nM
CN1CC2CCC1(C(NC(=O)c1ccccc1Br)c1ccccc1)CC2 (stereo not shown) [2-bromo-N-((2-methyl-2-azabicyclo[2.2.2]octan-1-yl)(phenyl)methyl)benzamide]	10.5 nM
CN1CC2CCC1(C(NC(=O)c1cccc(F)c1Cl)c1ccccc1)CC2 (stereo not shown) [2-chloro-3-fluoro-N-((2-methyl-2-azabicyclo[2.2.2]octan-1-yl)(phenyl)methyl)benzamide]	12 nM
COc1ccc(Cl)c(C(=O)NC(c2ccccc2)C23CCC(CC2)CN3C)c1 (stereo not shown) [2-chloro-5-methoxy-N-((2-methyl-2-azabicyclo[2.2.2]octan-1-yl)(phenyl)methyl)benzamide]	32.7 nM
COc1cccc(Cl)c1C(=O)NC(c1ccccc1)C12CCC(CC1)CN2C (stereo not shown) [2-chloro-6-methoxy-N-((2-methyl-2-azabicyclo[2.2.2]octan-1-yl)(phenyl)methyl)benzamide]	3.15 nM
Cc1cccc(Cl)c1C(=O)NC(c1ccccc1)C12CCC(CC1)CN2C (stereo not shown) [2-chloro-6-methyl-N-((2-methyl-2-azabicyclo[2.2.2]octan-1-yl)(phenyl)methyl)benzamide]	2.3 nM
CN1CC2CCC1(C(NC(=O)c1ccccc1Cl)c1ccccc1)CC2 (stereo not shown) [2-chloro-N-((2-methyl-2-azabicyclo[2.2.2]octan-1-yl)(phenyl)methyl)benzamide]	65.1 nM
CN1CC2CCC1(C(NC(=O)c1cccc(C(F)(F)F)c1F)c1ccccc1)CC2 (stereo not shown) [2-fluoro-N-((2-methyl-2-azabicyclo[2.2.2]octan-1-yl)(phenyl)methyl)-3-(trifluoromethyl)benzamide]	92 nM
CN1CC2CCC1(C(NC(=O)c1c(F)cccc1C(F)(F)F)c1ccccc1)CC2 (stereo not shown) [2-fluoro-N-((2-methyl-2-azabicyclo[2.2.2]octan-1-yl)(phenyl)methyl)-6-(trifluoromethyl)benzamide]	65 nM
Cc1c(C(=O)NC(c2ccccc2)C23CCC(CC2)CN3C)cccc1C(F)(F)F (stereo not shown) [2-methyl-N-((2-methyl-2-azabicyclo[2.2.2]octan-1-yl)(phenyl)methyl)-3-(trifluoromethyl)benzamide]	< 2.34 nM
Cc1ccccc1C(=O)NC(c1ccccc1)C12CCC(CC1)CN2C (stereo not shown) [2-methyl-N-((2-methyl-2-azabicyclo[2.2.2]octan-1-yl)(phenyl)methyl)benzamide]	3.48 nM
Cc1c(F)cccc1C(=O)NC(c1ccccc1)C12CCC(CC1)CN2C (stereo not shown) [3-fluoro-2-methyl-N-((2-methyl-2-azabicyclo[2.2.2]octan-1-yl)(phenyl)methyl)benzamide]	2.6 nM
CN1CC2CCC1([C@H](NC(=O)c1ccc(Cl)cc1Cl)c1ccccc1)CC2 [(R)-2,4-dichloro-N-((2-methyl-2-azabicyclo[2.2.2]octan-1-yl)(phenyl)methyl)benzamide,citric acid salt]	11.1 nM
CN1CC2CCC1([C@H](NC(=O)c1cccc(F)c1Cl)c1ccccc1)CC2 [(R)-2-chloro-3-fluoro-N-((2-methyl-2-azabicyclo[2.2.2]octan-1-yl)(phenyl)methyl)benzamide,citric acid salt]	5.9 nM
COc1cccc(Cl)c1C(=O)N[C@H](c1ccccc1)C12CCC(CC1)CN2C [(R)-2-chloro-6-methoxy-N-((2-methyl-2-azabicyclo[2.2.2]octan-1-yl)(phenyl)methyl)benzamide,citric acid salt]	4.74 nM
CCOc1ccccc1C(=O)N[C@H](c1ccccc1)C12CCC(CC1)CN2C [(R)-2-ethoxy-N-((2-methyl-2-azabicyclo[2.2.2]octan-1-yl)(phenyl)methyl)benzamide,citric acid salt]	336 nM
CCc1ccccc1C(=O)N[C@H](c1ccccc1)C12CCC(CC1)CN2C [(R)-2-ethyl-N-((2-methyl-2-azabicyclo[2.2.2]octan-1-yl)(phenyl)methyl)benzamide,citric acid salt]	0.965 nM
CN1CC2CCC1([C@H](NC(=O)c1ccccc1C(F)(F)F)c1ccccc1)CC2 [(R)-N-((2-methyl-2-azabicyclo[2.2.2]octan-1-yl)(phenyl)methyl)-2-(trifluoromethyl)benzamide,citric acid salt]	49.6 nM
CN1CC2CCC1(C(NC(=O)c1cc(C(F)(F)F)ccc1C(F)(F)F)c1ccccc1)CC2 (stereo not shown) [N-((2-methyl-2-azabicyclo[2.2.2]octan-1-yl)(phenyl)methyl)-2,5-bis(trifluoromethyl)benzamide]	86.2 nM
CSc1ccccc1C(=O)NC(c1ccccc1)C12CCC(CC1)CN2C (stereo not shown) [N-((2-methyl-2-azabicyclo[2.2.2]octan-1-yl)(phenyl)methyl)-2-(methylthio)benzamide]	2.95 nM
CN1CC2CCC1(C(NC(=O)c1ccccc1OC(F)(F)F)c1ccccc1)CC2 (stereo not shown) [N-((2-methyl-2-azabicyclo[2.2.2]octan-1-yl)(phenyl)methyl)-2-(trifluoromethoxy)benzamide]	13.6 nM
CN1CC2CCC1(C(NC(=O)c1ccc(F)cc1Cl)c1ccccc1)CC2 (stereo not shown) [drawing 37, 2-chloro-4-fluoro-N-((2-methyl-2-azabicyclo[2.2.2]octan-1-yl)(phenyl)methyl)benzamide]	8.45 nM
CN1CC2CCC1(C(NC(=O)c1ccc(F)cc1Cl)c1ccccc1)CC2 [drawing 58, (R)-2-chloro-4-fluoro-N-((2-methyl-2-azabicyclo[2.2.2]octan-1-yl)(phenyl)methyl)benzamide,citric acid salt]	7.71 nM
